Source: patent US11878975B2, “Substituted indole compounds useful as TLR inhibitors” (BRISTOL-MYERS SQUIBB COMPANY, priority 2017, dated 2024)

Columns and labels:
Assay type in all cases: cell-based
human TLR7 = target: T1, human TLR7 (Homo sapiens, UniProt Q9NYK1); test: TLR7 inhibition reporter assay (HEK-Blue cells, SEAP reporter, gardiquimod stimulation); conditions: HEK-Blue cells overexpressing human TLR7, SEAP reporter, gardiquimod 7.5 μM
T1 construct: host or cells: HEK-Blue cells
T1 sequence (Q9NYK1 27-1049): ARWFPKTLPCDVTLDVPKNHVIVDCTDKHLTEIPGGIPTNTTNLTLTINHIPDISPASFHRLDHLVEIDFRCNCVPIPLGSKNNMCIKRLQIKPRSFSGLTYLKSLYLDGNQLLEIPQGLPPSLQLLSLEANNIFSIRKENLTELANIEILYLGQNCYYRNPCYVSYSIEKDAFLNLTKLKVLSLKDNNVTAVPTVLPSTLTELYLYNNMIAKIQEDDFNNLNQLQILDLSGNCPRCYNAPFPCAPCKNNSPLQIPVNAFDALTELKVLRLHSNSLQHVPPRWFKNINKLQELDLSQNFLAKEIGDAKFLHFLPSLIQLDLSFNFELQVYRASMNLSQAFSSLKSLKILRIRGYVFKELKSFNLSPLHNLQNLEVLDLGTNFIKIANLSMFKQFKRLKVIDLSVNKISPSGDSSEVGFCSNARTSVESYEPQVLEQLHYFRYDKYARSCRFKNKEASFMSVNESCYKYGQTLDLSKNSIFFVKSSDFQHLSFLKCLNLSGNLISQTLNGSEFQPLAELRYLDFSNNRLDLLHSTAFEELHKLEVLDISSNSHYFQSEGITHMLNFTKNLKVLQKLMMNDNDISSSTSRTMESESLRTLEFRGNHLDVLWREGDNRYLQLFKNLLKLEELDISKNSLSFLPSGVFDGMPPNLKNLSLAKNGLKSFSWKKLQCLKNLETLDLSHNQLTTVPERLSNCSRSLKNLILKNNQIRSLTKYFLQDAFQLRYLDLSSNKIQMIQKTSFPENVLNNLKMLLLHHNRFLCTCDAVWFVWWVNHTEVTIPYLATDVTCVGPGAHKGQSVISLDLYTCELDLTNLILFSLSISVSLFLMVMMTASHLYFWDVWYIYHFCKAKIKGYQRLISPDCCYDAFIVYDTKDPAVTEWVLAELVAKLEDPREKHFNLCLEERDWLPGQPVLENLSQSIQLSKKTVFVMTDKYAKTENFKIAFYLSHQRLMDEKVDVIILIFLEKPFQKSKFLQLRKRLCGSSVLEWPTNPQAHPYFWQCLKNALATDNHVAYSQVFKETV
Outline: (§1)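 Dose range 0.05 nM–50 μM; 30 min preincubation, RT. Agonists: TLR7 gardiquimod 7.5 μM, TLR8 R848 15.9 μM, TLR9 ODN2006 5 nM. 22 h, 37 °C, 5% CO2. SEAP (IFN-β minimal promoter with NF-κB/AP-1 sites) via colorimetric detection medium; % inhibition vs agonist+DMSO and reference-inhibitor wells.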

human TLR8 = target: T2, human TLR8 (Homo sapiens, UniProt Q9NR97); test: TLR8 inhibition reporter assay (HEK-Blue cells, SEAP reporter, R848 stimulation); conditions: HEK-Blue cells overexpressing human TLR8, SEAP reporter, R848 15.9 μM
T2 construct: host or cells: HEK-Blue cells
T2 sequence (Q9NR97 27-1041): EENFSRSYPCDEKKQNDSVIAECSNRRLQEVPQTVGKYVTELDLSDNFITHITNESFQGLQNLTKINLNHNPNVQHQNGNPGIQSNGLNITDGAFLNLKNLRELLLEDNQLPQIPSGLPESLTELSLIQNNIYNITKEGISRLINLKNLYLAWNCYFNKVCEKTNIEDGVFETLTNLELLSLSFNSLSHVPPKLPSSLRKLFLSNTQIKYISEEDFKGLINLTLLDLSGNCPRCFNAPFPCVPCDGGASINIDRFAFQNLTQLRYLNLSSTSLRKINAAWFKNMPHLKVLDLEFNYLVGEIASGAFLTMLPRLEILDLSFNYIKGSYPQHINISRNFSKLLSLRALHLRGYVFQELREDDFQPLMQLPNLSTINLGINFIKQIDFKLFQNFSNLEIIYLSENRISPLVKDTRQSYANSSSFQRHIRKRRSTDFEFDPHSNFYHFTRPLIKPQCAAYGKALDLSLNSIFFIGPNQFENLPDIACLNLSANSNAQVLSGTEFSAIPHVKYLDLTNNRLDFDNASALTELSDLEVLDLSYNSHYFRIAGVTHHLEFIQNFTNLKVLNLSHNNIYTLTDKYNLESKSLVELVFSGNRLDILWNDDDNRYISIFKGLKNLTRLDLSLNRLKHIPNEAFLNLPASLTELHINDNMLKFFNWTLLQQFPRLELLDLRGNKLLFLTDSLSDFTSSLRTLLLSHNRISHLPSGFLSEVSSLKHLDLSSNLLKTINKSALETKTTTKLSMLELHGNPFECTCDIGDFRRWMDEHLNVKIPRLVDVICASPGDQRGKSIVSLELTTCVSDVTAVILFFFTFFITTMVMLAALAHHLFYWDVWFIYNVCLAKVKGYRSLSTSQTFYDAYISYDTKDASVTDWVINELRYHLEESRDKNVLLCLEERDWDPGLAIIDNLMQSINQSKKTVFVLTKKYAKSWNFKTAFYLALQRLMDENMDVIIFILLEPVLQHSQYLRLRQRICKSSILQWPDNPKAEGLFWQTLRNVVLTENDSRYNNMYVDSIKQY
Outline: as §1

human TLR9 = target: T3, human TLR9 (Homo sapiens, UniProt Q9NR96); test: TLR9 inhibition reporter assay (HEK-Blue cells, SEAP reporter, ODN2006 stimulation); conditions: HEK-Blue cells overexpressing human TLR9, SEAP reporter, ODN2006 5 nM
T3 construct: host or cells: HEK-Blue cells
T3 sequence (Q9NR96 26-1032): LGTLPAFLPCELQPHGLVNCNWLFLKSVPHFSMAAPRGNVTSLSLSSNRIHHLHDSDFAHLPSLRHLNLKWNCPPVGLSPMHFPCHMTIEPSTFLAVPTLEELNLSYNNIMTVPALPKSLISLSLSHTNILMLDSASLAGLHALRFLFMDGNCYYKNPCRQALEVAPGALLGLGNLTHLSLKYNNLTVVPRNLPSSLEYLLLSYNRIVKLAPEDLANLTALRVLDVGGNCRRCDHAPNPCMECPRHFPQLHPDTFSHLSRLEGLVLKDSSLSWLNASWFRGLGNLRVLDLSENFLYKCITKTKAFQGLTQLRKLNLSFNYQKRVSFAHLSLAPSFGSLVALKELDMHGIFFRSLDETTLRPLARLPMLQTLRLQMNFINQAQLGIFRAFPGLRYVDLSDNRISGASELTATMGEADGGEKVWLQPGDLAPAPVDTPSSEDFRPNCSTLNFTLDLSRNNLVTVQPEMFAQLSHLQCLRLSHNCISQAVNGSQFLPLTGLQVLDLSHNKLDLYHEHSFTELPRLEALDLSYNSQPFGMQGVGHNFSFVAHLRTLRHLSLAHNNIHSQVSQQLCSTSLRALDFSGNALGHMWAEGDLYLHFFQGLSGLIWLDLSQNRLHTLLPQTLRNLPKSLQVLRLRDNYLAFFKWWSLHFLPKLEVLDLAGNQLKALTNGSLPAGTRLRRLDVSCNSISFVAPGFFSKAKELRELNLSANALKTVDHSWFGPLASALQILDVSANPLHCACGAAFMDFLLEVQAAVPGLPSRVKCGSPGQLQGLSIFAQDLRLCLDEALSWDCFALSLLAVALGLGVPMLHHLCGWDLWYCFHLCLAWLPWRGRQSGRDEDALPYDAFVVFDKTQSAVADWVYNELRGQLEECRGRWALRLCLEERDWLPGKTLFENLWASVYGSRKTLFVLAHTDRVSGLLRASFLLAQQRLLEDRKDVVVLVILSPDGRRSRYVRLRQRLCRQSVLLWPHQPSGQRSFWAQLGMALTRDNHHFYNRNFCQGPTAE
Outline: as §1

SMILES	IC50 (human TLR7) [nM]	IC50 (human TLR8) [nM]	IC50 (human TLR9) [nM]
Cc1c(-c2[nH]c3ccc(C4CC(N(C)CCS(C)(=O)=O)C4)cc3c2C(C)C)cn2ncnc2c1C (stereo not drawn) [Example 582]	3	0.56	35700
Cc1c(-c2[nH]c3ccc(C4CC(N(C)C(=O)CN(C)C)C4)cc3c2C(C)C)cn2ncnc2c1C (stereo not drawn) [Example 584]	2	3.8	5650
Cc1c(-c2[nH]c3ccc(C4CC(N(C)CCS(C)(=O)=O)C4)cc3c2C(C)C)cn2ncnc2c1C (stereo not drawn) [Example 586]	13	3.8	44000
COc1cc(-c2[nH]c3ccc(C4CC(N(C)CCS(C)(=O)=O)C4)cc3c2C(C)C)cn2ncnc12 (stereo not drawn) [Example 587]	5	5.7	21300
Cc1c(-c2[nH]c3ccc(C4CC(N(C)C(=O)CN(C)C)C4)cc3c2C(C)C)cn2ncnc2c1C (stereo not drawn) [Example 589]	2	2.8	5410
Cc1cc(-c2[nH]c3ccc(C4CCNC4)cc3c2C(C)C)cc(C)n1 (stereo not drawn) [Example 590]	5	0.5	930
Cc1cc(-c2[nH]c3ccc(C4CCN(C(=O)CN(C)C)C4)cc3c2C(C)C)cc(C)n1 (stereo not drawn) [Example 591]	8	8.7	1010
COc1ccc(-c2[nH]c3ccc(C4CCCNC4)cc3c2C(C)C)cc1OC (stereo not drawn) [Example 592]	31	10	1470

Compounds with a lower IC50 (human TLR7), results first:

IC50 (human TLR7) [nM]	IC50 (human TLR8) [nM]	IC50 (human TLR9) [nM]	SMILES
0.99	0.32	31000	COc1cc(-c2[nH]c3ccc(C4CC(N(C)CCS(C)(=O)=O)C4)cc3c2C(C)C)cn2ncnc12 (stereo not drawn) [Example 583]
0.55	2.9	2810	COc1cc(-c2[nH]c3ccc(C4CC(N(C)C(=O)CN(C)C)C4)cc3c2C(C)C)cn2ncnc12 (stereo not drawn) [Example 585]
0.4	1.4	1870	COc1cc(-c2[nH]c3ccc(C4CC(N(C)C(=O)CN(C)C)C4)cc3c2C(C)C)cn2ncnc12 (stereo not drawn) [Example 588]
